Data set [1] in a line: in vitro. To be noted: human, hela cells, % viability.
Data set [2] deals with T1, C. trachomatis L2/434/Bu expressing GFP (CTL2-GFP).
T1 construct: L2/434/Bu GFP intracellular growth in HeLa cells
The experiment in a line: microbe, parasite or virus in culture. Details: C. trachomatis total inclusion area by high-content imaging, normalised to DMSO. To be noted: Chlamydia trachomatis, HeLa, 28.5 h; total inclusion area; read-out: % of control remaining. The gist of the method: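 GFP/resorufin bulk fluorescence read → fix → Hoechst stain → high-content imaging. Inclusion total area + count = growth proxy; nuclei count = host viability proxy. MIC calc per earlier method.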

Data set [3] relates to T2, CTL2-GFP (C. trachomatis L2/434/Bu, GFP-expressing).
T2 construct: L2/434/Bu, GFP-expressing
The experiment in a line: microbe, parasite or virus in culture. To be noted: Chlamydia trachomatis, HeLa, 28.5 h; bulk GFP, mean of 2; read-out: % of control remaining. Also noted: Intracellular C. trachomatis growth in HeLa cells, bulk GFP fluorescence relative to DMSO. As for the experimental part: MICs were calculated as described above.

Data set [4] in a line: in vitro. Details: Viability of infected HeLa host cells, resazurin conversion, bulk resorufin fluorescence relative to DMSO. To be noted: human, hela cells; bulk resorufin, mean of 2.

In the case of `CN1CCOC(CNc2nc(-c3ccncc3)nc3c2CCC3)C1` (centres unmarked) [CBK304890], the viability (in general, a read-out of living cells in per cent, often relative to untreated cells) at 28.5 h, 10 µM in “in vitro [1]” amounted to 87%. In data set [2], the activity at 1 µM was 46.1%, the activity at 5 µM was 45.8% and the activity at 10 µM worked out at 25.1%. Also, in data set [3], the activity at 1 µM is 141%, the activity at 5 µM was 112% and the activity at 10 µM was determined as 126%. In the data set “in vitro [4]”, the viability at 28.5 h, 1 µM was found to be 90.5%; the viability at 28.5 h, 5 µM is 92.8%; the viability at 28.5 h, 10 µM amounted to 99.5%.

With `COc1cccc(C(=O)N2CCC(Cc3ccc(-c4cccc(C)c4)cc3)(C(N)=O)CC2)c1` [CBK285779], the viability at 28.5 h, 10 µM in “in vitro [1]” amounted to 115%. Besides, in data set [2], the activity at 1 µM amounted to 113%, the activity at 5 µM was found to be 114% and the activity at 10 µM was found to be 62.9%. Besides, in data set [3], the activity at 1 µM was 119%, the activity at 5 µM was 104% and the activity at 10 µM was determined as 49.9%. In addition, in “in vitro [4]”, the viability at 28.5 h, 1 µM was 96.4%; the viability at 28.5 h, 5 µM was 98.8%; the viability at 28.5 h, 10 µM turned out to be 90.2%.

For the compound `CCN1CCN(c2cc3c(cc2F)c(=O)c(C(=O)NCCOC)cn3C2CC2)CC1` [CBK300529], the viability at 28.5 h, 10 µM in the data set “in vitro [1]” turned out to be 94.2%. Moreover, in data set [2], the activity at 1 µM is 24.3%, the activity at 5 µM turned out to be 3.14% and the activity at 10 µM is 0.623%. Further, in data set [3], the activity at 1 µM worked out at 36.3%, the activity at 5 µM came to 5.5% and the activity at 10 µM amounted to 6.24%. In addition, in the data set “in vitro [4]”, the viability at 28.5 h, 1 µM is 88.9%; the viability at 28.5 h, 5 µM came to 93%; the viability at 28.5 h, 10 µM was determined as 88.7%.

For `Nc1nc(F)nc2c1ncn2[C@H]1C[C@@H](O)[C@@H](CO)O1` [CBK201337], in the data set “in vitro [1]”, the viability at 28.5 h, 10 µM was 77.6%. For the same compound, in data set [2], the activity at 1 µM is 50.4%, the activity at 5 µM amounted to 4.65% and the activity at 10 µM worked out at 1.29%. Further, in data set [3], the activity at 1 µM turned out to be 52.9%, the activity at 5 µM amounted to 11.5% and the activity at 10 µM came to 14.4%. In addition, in “in vitro [4]”, the viability at 28.5 h, 1 µM was determined as 93.5%; the viability at 28.5 h, 5 µM worked out at 79.2%; the viability at 28.5 h, 10 µM is 72.6%.

As for `Nc1ccc(C(=O)Nc2ccc(-c3nc4ccc(NC(=O)c5ccc(N)cc5)cc4[nH]3)cc2)cc1` [CBK261147], the viability at 28.5 h, 10 µM in “in vitro [1]” was 109%. In addition, in data set [2], the activity at 1 µM was found to be 101%, the activity at 5 µM was 76.7% and the activity at 10 µM turned out to be 91.9%. In addition, in data set [3], the activity at 1 µM turned out to be 149%, the activity at 5 µM is 133% and the activity at 10 µM came out at 160%. Further, in the data set “in vitro [4]”, the viability at 28.5 h, 1 µM worked out at 88.3%; the viability at 28.5 h, 5 µM is 93.2%; the viability at 28.5 h, 10 µM worked out at 103%.

As for `OCC1(CNc2ncc(F)c(N3CCCC3)n2)CCOCC1` [CBK306647], in “in vitro [1]”, the viability at 28.5 h, 10 µM was determined as 87.3%. Also, in data set [2], the activity at 1 µM is 130%, the activity at 5 µM is 60.9% and the activity at 10 µM is 47.1%. In addition, in data set [3], the activity at 1 µM turned out to be 108%, the activity at 5 µM was 64.2% and the activity at 10 µM turned out to be 59%. For the same compound, in the data set “in vitro [4]”, the viability at 28.5 h, 1 µM was found to be 100%; the viability at 28.5 h, 5 µM is 93.8%; the viability at 28.5 h, 10 µM amounted to 95.5%.

Regarding `OCCn1ncc2c(NCc3cccc(Cn4ccnc4)c3)ncnc21` [CBK304184], the viability at 28.5 h, 10 µM in the data set “in vitro [1]” was 90.3%. Also, in data set [2], the activity at 1 µM is 81%, the activity at 5 µM was 101% and the activity at 10 µM turned out to be 58.7%. In data set [3], the activity at 1 µM was 144%, the activity at 5 µM was 158% and the activity at 10 µM was 128%. In addition, in the data set “in vitro [4]”, the viability at 28.5 h, 1 µM was 96.1%; the viability at 28.5 h, 5 µM was 92%; the viability at 28.5 h, 10 µM came out at 92.4%.

With `COC(=O)N1CCc2ccc(N3C[C@H](CNC(C)=O)OC3=O)cc2CC1` [CBK022485], the viability at 28.5 h, 10 µM in the data set “in vitro [1]” was 79.8%. In addition, in data set [2], the activity at 1 µM was 128%, the activity at 5 µM is 35.2% and the activity at 10 µM stood at 7.61%. In data set [3], the activity at 1 µM stood at 136%, the activity at 5 µM was determined as 44.2% and the activity at 10 µM worked out at 12.6%. In addition, in the data set “in vitro [4]”, the viability at 28.5 h, 1 µM is 88.3%; the viability at 28.5 h, 5 µM is 85.8%; the viability at 28.5 h, 10 µM turned out to be 90.5%.

For the compound `Cc1c(OCc2cnn(-c3ccccc3)c2)ccc(-c2n[nH]c(C(F)(F)F)c2-c2ccccc2)c1O` [CBK264962], the viability at 28.5 h, 10 µM in “in vitro [1]” was 104%. Moreover, in data set [2], the activity at 1 µM amounted to 82.3%, the activity at 5 µM turned out to be 57.5% and the activity at 10 µM worked out at 20.9%. Further, in data set [3], the activity at 1 µM is 89.8%, the activity at 5 µM was determined as 73.9% and the activity at 10 µM stood at 49.7%. In addition, in “in vitro [4]”, the viability at 28.5 h, 1 µM is 109%; the viability at 28.5 h, 5 µM worked out at 90.9%; the viability at 28.5 h, 10 µM worked out at 97%.

`c1ccc(-c2nnc3ccccc3c2N2CCNCC2)cc1` [CBK066888]: the viability at 28.5 h, 10 µM in “in vitro [1]” was found to be 107%. For the same compound, in data set [2], the activity at 1 µM turned out to be 97.7%, the activity at 5 µM was found to be 46% and the activity at 10 µM is 0.17%. Moreover, in data set [3], the activity at 1 µM worked out at 125%, the activity at 5 µM worked out at 82.9% and the activity at 10 µM came to 27.1%. For the same compound, in “in vitro [4]”, the viability at 28.5 h, 1 µM is 114%; the viability at 28.5 h, 5 µM is 106%; the viability at 28.5 h, 10 µM is 105%.

Take `O=C(Nc1ccccc1C(=O)Nc1nnc(C(F)(F)F)s1)c1ccccc1Cl` [CBK076900]: the viability at 28.5 h, 10 µM in the data set “in vitro [1]” was 76.9%. In data set [2], the activity at 1 µM stood at 113%, the activity at 5 µM stood at 64.7% and the activity at 10 µM is 63.4%. For the same compound, in data set [3], the activity at 1 µM stood at 130%, the activity at 5 µM came out at 90.8% and the activity at 10 µM was 45.1%. Moreover, in the data set “in vitro [4]”, the viability at 28.5 h, 1 µM is 94.7%; the viability at 28.5 h, 5 µM worked out at 97%; the viability at 28.5 h, 10 µM is 84.6%.

For `Clc1ccc2nc(-c3ccccn3)[nH]c2c1` [CBK000116], the viability at 28.5 h, 10 µM in the data set “in vitro [1]” was 83.8%. In addition, in data set [2], the activity at 1 µM came to 70.7%, the activity at 5 µM was found to be 9.19% and the activity at 10 µM is 1.69%. In data set [3], the activity at 1 µM was 75%, the activity at 5 µM is 13.8% and the activity at 10 µM is 1.74%. Further, in “in vitro [4]”, the viability at 28.5 h, 1 µM was determined as 111%; the viability at 28.5 h, 5 µM amounted to 104%; the viability at 28.5 h, 10 µM is 104%.

With `O=C(Nc1ccc(S(=O)(=O)Nc2ncccn2)cc1)c1ccc2c(c1)OCCO2` [CBK268132], the viability at 28.5 h, 10 µM in the data set “in vitro [1]” was 96.7%. Also, in data set [2], the activity at 1 µM is 89.9%, the activity at 5 µM was 82.3% and the activity at 10 µM is 42.6%. In data set [3], the activity at 1 µM is 135%, the activity at 5 µM was found to be 76.4% and the activity at 10 µM worked out at 55.4%. In addition, in “in vitro [4]”, the viability at 28.5 h, 1 µM is 84%; the viability at 28.5 h, 5 µM was found to be 94.2%; the viability at 28.5 h, 10 µM was determined as 95.2%.

For `CC(Nc1cc(N2CCN(CCO)CC2)ccc1[N+](=O)[O-])c1ccc(Br)cc1` (centres unmarked) [CBK041273], the viability at 28.5 h, 10 µM in the data set “in vitro [1]” came to 103%. Moreover, in data set [2], the activity at 1 µM came out at 130%, the activity at 5 µM came to 81.9% and the activity at 10 µM amounted to 47.4%. Moreover, in data set [3], the activity at 1 µM amounted to 139%, the activity at 5 µM was found to be 130% and the activity at 10 µM was found to be 93.8%. Moreover, in “in vitro [4]”, the viability at 28.5 h, 1 µM came to 91.4%; the viability at 28.5 h, 5 µM amounted to 94.5%; the viability at 28.5 h, 10 µM was found to be 96.3%.

For `O=C(NCCNCCNC(=O)C1(c2ccccc2)CCCC1)C1(c2ccccc2)CCCC1` [CBK017670], the viability at 28.5 h, 10 µM in the data set “in vitro [1]” came out at 110%. Moreover, in data set [2], the activity at 1 µM worked out at 107%, the activity at 5 µM was found to be 54.1% and the activity at 10 µM was found to be 8.64%. Moreover, in data set [3], the activity at 1 µM was determined as 123%, the activity at 5 µM came to 49.1% and the activity at 10 µM is 13.5%. Besides, in the data set “in vitro [4]”, the viability at 28.5 h, 1 µM stood at 91.6%; the viability at 28.5 h, 5 µM came out at 93.5%; the viability at 28.5 h, 10 µM amounted to 89.5%.

As for `CC(C)(CNS(=O)(=O)c1ccc(F)cc1)CNS(=O)(=O)c1ccc(F)cc1` [CBK265455], the viability at 28.5 h, 10 µM in the data set “in vitro [1]” was found to be 111%. In data set [2], the activity at 1 µM is 80.8%, the activity at 5 µM is 21.4% and the activity at 10 µM is 1.74%. In data set [3], the activity at 1 µM stood at 79.4%, the activity at 5 µM came out at 13.3% and the activity at 10 µM was 0%. In addition, in the data set “in vitro [4]”, the viability at 28.5 h, 1 µM worked out at 112%; the viability at 28.5 h, 5 µM came to 111%; the viability at 28.5 h, 10 µM amounted to 116%.

Consider `C/C(=N\Nc1nnc2c(n1)[nH]c1ccccc12)c1ccccn1` [CBK262054], for which the viability at 28.5 h, 10 µM in the data set “in vitro [1]” was found to be 94.5%. For the same compound, in data set [2], the activity at 1 µM came to 18.7%, the activity at 5 µM was found to be 2.45% and the activity at 10 µM stood at 1.6%. In addition, in data set [3], the activity at 1 µM was determined as 18%, the activity at 5 µM came out at 12.2% and the activity at 10 µM is 10.5%. Also, in “in vitro [4]”, the viability at 28.5 h, 1 µM was 87.3%; the viability at 28.5 h, 5 µM was found to be 69.7%; the viability at 28.5 h, 10 µM is 70.2%.
